{"source": "patent US9326990B2", "about": "“Heart failure suppressing agent” (THE UNIVERSITY OF TOKYO, priority 2011, dated 2016)", "format_in_all_cases": "in vivo", "key": {"[1]": {"tested_on": "TGF-β1 (transforming growth factor) gene expression", "test": "Real time PCR of fibrosis marker gene TGF-β1 in ventricular tissue, angiotensin II rat model", "conditions": "corrected with GAPDH, Ang II + luteolin glycoside, FIG. 6", "description": "(§1) Angiotensin II was continuously infused to an 8 week-old male SD rat, and the action of luteolin glycoside (luteolin-7-O-glucoside was used) to cardiac fibrosis and cardiomegaly in the acceleration state of oxidative stress was investigated. For the control group, rats were normally raised. For the angiotensin II group (Ang II group), an angiotensin II-continuous infusion pump was implanted subcutaneously in the rat, and continuous infusion was performed for 7 days. […]\n(§2) The blood pressure was measured at the seventh day, the degree of the ventricular wall thickness was evaluated with echocardiographic examination, then the heart was removed, and the weights of the heart and the ventricle were measured. The reactive oxygen was evaluated with hydroethidine staining, and the degree of fibrosis was evaluated with Masson's trichrome staining. Gene expressions of the fibrosis marker, and the heart failure marker in the ventricular tissue were evaluated with real time PCR.\n(§3) RNA was extracted from the ventricular tissue, and expression amounts of various genes were evaluated with real time PCR."}, "[2]": {"tested_on": "BNP (brain natriuretic peptide) gene expression", "test": "Real time PCR of cardiomegaly/heart failure marker gene BNP in ventricular tissue, angiotensin II rat model", "conditions": "corrected with GAPDH, Ang II + luteolin glycoside, FIG. 7", "description": "as §1, §2, §3"}, "[3]": {"test": "Plasma luteolin concentration after oral administration to rats", "conditions": "male SD rat, 93 mg/kg PO; in comparison to luteolin (51 mg/kg PO) and luteolin-7-O-apiosyl glucoside (175 mg/kg PO), same aglycone amount; 0.5-8 hours; FIG. 12", "description": "Luteolin (51 mg/kg, PO), luteolin-7-O-glucoside (93 mg/kg, PO) and luteolin-7-O-apiosyl glucoside (175 mg/kg, PO) were orally administered to rats (8 weeks old, male SD rat), the blood was collected just before the administration, and at 0.5 hours, 1 hour, 2 hours and 8 hours after the administration from the tail vein, and the plasma luteolin concentration was measured. Meanwhile, the doses of each of the luteolin and a glycoside thereof were the same in terms of the amount of luteolin that is an aglycone."}, "[4]": {"tested_on": "ANP (atrial natriuretic peptide) gene expression", "test": "Real time PCR of cardiomegaly/heart failure marker gene ANP in ventricular tissue, angiotensin II rat model", "conditions": "corrected with GAPDH, Ang II + luteolin glycoside, FIG. 7", "description": "as §1, §2, §3"}, "[5]": {"tested_on": "CTGF (connective tissue growth factor) gene expression", "test": "Real time PCR of fibrosis marker gene CTGF in ventricular tissue, angiotensin II rat model", "conditions": "corrected with GAPDH, Ang II + luteolin glycoside, FIG. 6", "description": "as §1, §2, §3"}, "[6]": {"tested_on": "angiotensin II-continuous infusion SD rat", "test": "Angiotensin II-continuous infusion rat model of cardiac fibrosis and cardiomegaly", "description": "Angiotensin II was continuously infused to an 8 week-old male SD rat, and the action of luteolin glycoside (luteolin-7-O-glucoside was used) to cardiac fibrosis and cardiomegaly in the acceleration state of oxidative stress was investigated. For the control group, rats were normally raised. For the angiotensin II group (Ang II group), an angiotensin II-continuous infusion pump was implanted subcutaneously in the rat, and continuous infusion was performed for 7 days. For the luteolin glycoside simultaneous-administration group (Ang II+LMG group), a luteolin glycoside-blended feed (3.6 g of luteolin monoglycoside (LMG) was blended per 10 kg of feed) was fed for 3 weeks, then an angiotensin II-continuous infusion pump was implanted subcutaneously, and continuous infusion was performed for 7 days.\nas §2"}, "[7]": {"tested_on": "ApoE gene-deficient female mouse (ApoE−/−)", "test": "Acute aneurysm model by angiotensin II-continuous infusion in ApoE gene-deficient mouse", "excerpt": "Angiotensin II was continuously infused (for 16 weeks to 20 weeks) to a 12 week-old ApoE gene-deficient female mouse (ApoE−/−) (about 25 g of body weight) whereby to prepare an acute aneurysm model, and the action of luteolin glycoside (luteolin-7-O-glucoside was used) was investigated. For the control group (n=5), mice were normally raised (saline was continuously infused). For the angiotensin II group ([…]), an angiotensin II-continuous infusion pump was implanted subcutaneously in the mouse, and continuous infusion was performed for 4 weeks. For the luteolin glycoside simultaneous-administration group (Ang II+luteolin group), a luteolin glycoside-blended feed (0.055% of luteolin-7-O-glucoside was blended per feed) was fed for 3 weeks, then an angiotensin II-continuous infusion pump was implanted subcutaneously, and continuous infusion was performed for 4 weeks.\nWhen the mouse was 20 weeks old, the blood pressure and body weight were measured, then the heart, the kidney and the aorta were removed, and generation of aneurysm was observed."}}}
{"smiles": "O=c1cc(-c2ccc(O)c(O)c2)oc2cc(O[C@@H]3O[C@H](CO)[C@@H](O)[C@H](O)[C@H]3O)cc(O)c12", "note": "[luteolin glycoside, luteolin-7-O-glucoside]", "values": [{"measurement": "gene expression of TGF-β1 in ventricular tissue", "setting": "[1]", "value": "suppression of the expression"}, {"measurement": "gene expression of BNP in ventricular tissue", "setting": "[2]", "value": "suppression of the expression"}, {"measurement": "oral absorption (plasma luteolin concentration)", "setting": "[3]", "value": "remarkably higher"}, {"measurement": "gene expression of ANP in ventricular tissue", "setting": "[4]", "value": "suppression of the expression"}, {"measurement": "gene expression of CTGF in ventricular tissue", "setting": "[5]", "value": "suppression of the expression"}, {"measurement": "blood pressure increased by angiotensin II-continuous administration", "setting": "[6]; LMG-blended feed (3.6 g per 10 kg feed) 3 weeks, then Ang II infusion 7 days, seventh day, FIG. 1", "value": "did not lower"}, {"measurement": "fibrosis of the ventricular wall by angiotensin II", "setting": "[6]; LMG-blended feed, Ang II 7 days, Masson's trichrome staining, FIG. 5", "value": "remarkably suppressed"}, {"measurement": "ventricular wall thickening by angiotensin II administration", "setting": "[6]; LMG-blended feed, Ang II 7 days, echocardiographic examination, FIG. 2", "value": "significantly suppressed"}, {"measurement": "generation of reactive oxygen in the ventricular wall by angiotensin II", "setting": "[6]; LMG-blended feed, Ang II 7 days, hydroethidine staining, FIG. 4", "value": "remarkably suppressed"}, {"measurement": "blood pressure", "setting": "[7]; 0.055% luteolin-7-O-glucoside feed 3 weeks, then Ang II infusion 4 weeks, 20 weeks old, FIG. 8", "value": "not recognized"}, {"measurement": "body weight", "setting": "[7]; 0.055% luteolin-7-O-glucoside feed, Ang II 4 weeks, 20 weeks old, FIG. 8", "value": "not recognized"}, {"measurement": "aneurysm formation (appearance)", "setting": "[7]; 0.055% luteolin-7-O-glucoside feed, Ang II 4 weeks, FIG. 9", "value": "definitely suppressed"}, {"measurement": "diameter of aneurysm", "setting": "[7]; 0.055% luteolin-7-O-glucoside feed, Ang II 4 weeks, FIG. 10", "value": "decreased"}, {"measurement": "rupture of the arterial wall elastic fiber", "setting": "[7]; 0.055% luteolin-7-O-glucoside feed, Ang II 4 weeks, FIG. 11", "value": "suppressed"}]}
